The target in this test is T1, hERG potassium channel (Homo sapiens, UniProt Q12809).
T1 construct: expressed in transfected cells
The test is described as follows: hERG potassium channel inhibition experiment (automatic patch clamp, CHO-hERG cells). Conditions: Qpatch, highest tested concentration 40 μM, read-out: IC50, blocking effect on the hERG potassium current. It counts as cell-based. The method, then:
Fully automatic patch clamps were used to test the blocking effect of the compounds of the present invention on the hERG potassium current on a stable cell line transfected with hERG potassium channels.
CHO-hERG cells were cultured in 175 cm^2 culture flask. When the cell grew to 60-80% confluence, the culture medium was removed. The cells were washed with 7 ml PBS (Phosphate Buffered Saline) once, and then 3 ml Detachin was added to digest.
After the digestion was completed, 7 ml culture medium was added to neutralize. The mixture was centrifuged, and after the supernatant was removed, 5 ml culture medium was added to resuspend to ensure the cell density was 2×10^6-5×10^6/ml.
Single-cell high-impedance sealing and whole-cell mode formation were all automatically completed by using the Qpatch instrument. After the recording mode was obtained, the cell was clamped at −80 millivolts. Before +40 millivolt depolarization stimulation for 5 seconds was given, −50 millivolt pre-voltage for 50 millisecond was first given, then repolarized to −50 millivolt for 5 seconds, and then returned to −80 millivolt. This voltage stimulus was applied every 15 seconds. After recording for 2 min, extracellular fluid was given, and recording was conducted for 5 min, and then the dosing process started. The compound concentration started from the lowest test concentration, and each test concentration was given for 2.5 min. […] At least 3 cells per concentration (n≥3) were tested.
20 mM compound mother liquor was diluted with extracellular fluid. 5 μL of 20 mM compound mother liquor was taken and added into 2495 μL extracellular fluid, so that it was diluted 500 times to 40 μM, and was then serially diluted 3 times in an extracellular fluid containing 0.2% DMSO to obtain the final concentration to be tested.
The highest tested concentration was 40 μM, and the concentrations were in order as follows: 40, 13.33, 4.44, 1.48, 0.49, 0.16 μM, totally 6 concentrations.
Experimental data were analyzed by XLFit software.
(In general: The hERG channel carries a current that helps repolarise heart muscle cells.)

This passage reports IC50 results from patent publication US12351565B2, “Aromatic compound and preparation method therefor and use thereof” (SHANGHAI JIANHE PHARMACEUTICAL & TECHNOLOGY CO. LTD., priority 2018, dated 2025).

Bounds are passed on as bounds.

For orientation: IC50 means the concentration that gives 50% inhibition.

T1 sequence (Q12809 whole entry): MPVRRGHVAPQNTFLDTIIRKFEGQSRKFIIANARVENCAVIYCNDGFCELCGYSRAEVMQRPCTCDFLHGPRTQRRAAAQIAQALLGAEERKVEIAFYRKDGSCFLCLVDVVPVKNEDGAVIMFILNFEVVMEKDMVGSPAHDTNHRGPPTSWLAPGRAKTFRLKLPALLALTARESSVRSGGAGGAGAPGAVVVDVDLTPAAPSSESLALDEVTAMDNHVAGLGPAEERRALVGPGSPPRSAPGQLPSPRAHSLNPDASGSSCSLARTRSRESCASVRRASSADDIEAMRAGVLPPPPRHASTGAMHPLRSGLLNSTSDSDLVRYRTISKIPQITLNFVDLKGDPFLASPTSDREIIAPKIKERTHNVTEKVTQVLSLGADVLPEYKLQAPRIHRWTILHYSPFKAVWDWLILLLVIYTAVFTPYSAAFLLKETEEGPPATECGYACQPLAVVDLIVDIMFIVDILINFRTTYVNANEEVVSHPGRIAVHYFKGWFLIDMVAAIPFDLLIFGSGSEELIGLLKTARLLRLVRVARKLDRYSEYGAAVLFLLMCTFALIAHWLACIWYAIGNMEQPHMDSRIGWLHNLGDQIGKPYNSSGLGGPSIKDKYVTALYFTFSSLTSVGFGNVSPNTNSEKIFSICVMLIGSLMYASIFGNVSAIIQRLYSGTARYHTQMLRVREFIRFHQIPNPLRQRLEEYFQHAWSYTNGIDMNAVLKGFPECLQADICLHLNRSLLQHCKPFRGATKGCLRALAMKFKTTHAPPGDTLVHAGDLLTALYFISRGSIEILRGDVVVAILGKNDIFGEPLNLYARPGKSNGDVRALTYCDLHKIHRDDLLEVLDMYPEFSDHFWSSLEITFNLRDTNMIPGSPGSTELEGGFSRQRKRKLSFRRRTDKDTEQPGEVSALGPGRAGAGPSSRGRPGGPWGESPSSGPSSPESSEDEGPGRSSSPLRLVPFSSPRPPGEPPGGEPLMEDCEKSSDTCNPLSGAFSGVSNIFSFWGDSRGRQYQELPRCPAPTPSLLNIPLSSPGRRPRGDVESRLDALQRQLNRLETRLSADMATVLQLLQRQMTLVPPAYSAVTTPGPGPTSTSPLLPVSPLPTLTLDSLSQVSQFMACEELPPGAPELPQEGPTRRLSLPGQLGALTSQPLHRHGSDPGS

In the case of `Cl.N[C@]1(c2ccc(C(F)(F)F)cc2)CCC[C@H](O)C1=O` [Compound 51, (2S,6S)-2-amino-6-hydroxy-2-(4-(trifluoromethyl)phenyl)cyclohexane-1-one hydrochloride], the IC50 was > 40 µM.
